# Reference: the supplement of paper PMC10307832
# Assays:
# Experiment in all cases: relative viability (nuclei count vs DMSO), 5 days (fraction); higher = more cells survive
# TGX 221 + Olaparib = compound: CC1=CN2C(=O)C=C(N=C2C(=C1)C(C)NC3=CC=CC=C3)N4CCOCC4 [TGX 221] + O=C(c1cc(Cc2n[nH]c(=O)c3ccccc23)ccc1F)N1CCN(C(=O)C2CC2)CC1 [Olaparib] (partner 8 µM)
# In short: (§1)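 Values are medians from duplicate plates. Each reflects relative viability, defined as the nuclei count of treated wells over that of vehicle wells. Lung cancer cell lines in 1536-well plates were pin-tool dosed one day after seeding with one drug alone or with a fixed anchor-drug dose plus five library-drug doses (not always all listed) in √10 steps, then fixed, stained and imaged at 4× after 5 days.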
# [1] = compound: C1=CC=C(C(=C1)C2=CC=C(C=C2)C3=CSC4=C3C(=C(C(=O)N4)C#N)O)O + CC(=O)Nc1cccc(-n2c(=O)n(C3CC3)c(=O)c3c(Nc4ccc(I)cc4F)n(C)c(=O)c(C)c32)c1 [Trametinib] (partner 0.02 µM)
# In short: as §1
# [2] = compound: C1=CC=C(C(=C1)C2=CC=C(C=C2)C3=CSC4=C3C(=C(C(=O)N4)C#N)O)O + C[C@@H](Oc1cc(-c2cnn(C3CCNCC3)c2)cnc1N)c1c(Cl)ccc(F)c1Cl [Crizotinib] (partner 1 µM)
# In short: as §1
# TGX 221 + Pictilisib = compound: CC1=CN2C(=O)C=C(N=C2C(=C1)C(C)NC3=CC=CC=C3)N4CCOCC4 [TGX 221] + CS(=O)(=O)N1CCN(Cc2cc3nc(-c4cccc5[nH]ncc45)nc(N4CCOCC4)c3s2)CC1 [Pictilisib] (partner 1 µM)
# In short: as §1
Cell Line,relative viability (TGX 221 + Olaparib; first compound 0.08 µM),relative viability (TGX 221 + Olaparib; first compound 0.253 µM),relative viability (TGX 221 + Olaparib; first compound 0.8 µM),relative viability (TGX 221 + Olaparib; first compound 2.53 µM),relative viability (TGX 221 + Olaparib; first compound 8 µM),relative viability ([1]; first compound 0.08 µM),relative viability ([1]; first compound 0.253 µM),relative viability ([1]; first compound 0.8 µM),relative viability ([1]; first compound 2.53 µM),relative viability ([1]; first compound 8 µM),relative viability ([2]; first compound 0.08 µM),relative viability ([2]; first compound 0.253 µM),relative viability ([2]; first compound 0.8 µM),relative viability ([2]; first compound 2.53 µM),relative viability ([2]; first compound 8 µM),relative viability (TGX 221 + Pictilisib; first compound 0.253 µM),relative viability (TGX 221 + Pictilisib; first compound 0.8 µM),relative viability (TGX 221 + Pictilisib; first compound 2.53 µM),relative viability (TGX 221 + Pictilisib; first compound 8 µM),relative viability (TGX 221 + Pictilisib; first compound 0.08 µM)
201T,0.837,0.834,0.821,0.834,0.777,0.734,0.744,0.737,0.734,0.832,0.992,1.08,1.06,1.01,1.11,0.715,0.689,0.63,0.621,–
A549,0.375,0.318,0.0939,0.301,0.422,–,–,–,–,–,0.493,0.998,0.688,0.885,0.55,0.496,0.46,0.494,0.396,0.485
A-427,0.635,0.704,0.714,0.625,0.71,0.688,0.842,0.772,0.746,0.858,0.905,1.08,0.998,1.05,0.988,0.7,0.679,0.676,0.676,0.613
ABC-1,0.8,0.86,0.908,0.781,0.876,–,–,–,–,–,0.743,1.55,1.05,0.928,1,0.491,0.94,0.766,0.704,0.677
BEN,1.16,0.887,1.05,0.882,1.01,1.13,1.08,1.01,0.967,1.02,0.771,0.948,0.886,1.02,0.776,0.519,0.521,0.503,0.456,0.552
CAL-12T,0.705,0.709,0.72,0.678,0.747,0.378,0.381,0.312,0.333,0.27,–,0.789,0.441,0.739,0.485,0.415,0.376,–,0.519,–
COR-L23,0.368,0.326,0.405,0.315,0.334,0.669,0.716,0.76,0.552,0.521,0.577,0.89,0.772,0.644,0.533,0.713,0.757,0.771,0.892,0.746
COR-L 105,0.649,0.696,0.712,0.584,0.557,0.466,0.46,0.482,0.444,0.408,0.712,1.04,0.646,0.778,0.646,0.412,0.424,0.469,0.421,0.458
Calu-6,0.55,0.513,0.549,0.536,0.512,–,–,–,–,–,0.614,0.967,0.726,0.863,0.635,0.889,0.86,0.922,0.896,0.953
ChaGo-K-1,0.399,0.387,0.374,0.359,0.426,0.94,0.905,0.935,1.01,0.857,1.06,1.43,1.31,1.17,0.817,0.644,0.683,0.47,0.966,0.548
EBC-1,0.664,0.697,0.616,0.676,0.55,–,–,–,–,–,0.202,0.21,0.19,0.199,0.191,0.366,0.369,0.291,0.304,0.331
EKVX,0.75,0.758,0.792,0.691,0.709,0.358,0.436,0.462,0.378,0.318,0.947,1.06,0.824,1.36,0.803,0.458,0.448,0.39,0.404,0.337
EMC-BAC-2,0.463,0.453,0.526,0.418,0.472,0.942,–,0.889,0.892,0.913,0.741,0.824,0.632,0.821,0.644,0.523,0.535,0.471,0.535,0.535
EPLC-272H,0.786,0.582,0.845,0.483,0.504,0.269,–,0.245,0.252,0.289,–,1.04,0.839,0.891,0.796,0.295,0.369,–,0.339,0.259
H3255,0.508,0.536,0.561,0.547,0.499,0.57,0.676,–,0.782,0.526,0.806,1.01,0.723,0.873,0.815,0.445,0.45,0.492,0.539,0.466
HARA,0.658,0.917,0.868,0.629,0.711,0.689,0.705,0.959,0.659,0.554,–,1.51,1.1,1.05,0.842,0.469,0.372,0.361,0.585,0.538

Cell Line,relative viability (TGX 221 + Olaparib; first compound 0.08 µM),relative viability (TGX 221 + Olaparib; first compound 0.253 µM),relative viability (TGX 221 + Olaparib; first compound 0.8 µM),relative viability (TGX 221 + Olaparib; first compound 2.53 µM),relative viability (TGX 221 + Olaparib; first compound 8 µM),relative viability ([1]; first compound 0.08 µM),relative viability ([1]; first compound 0.253 µM),relative viability ([1]; first compound 0.8 µM),relative viability ([1]; first compound 2.53 µM),relative viability ([1]; first compound 8 µM),relative viability ([2]; first compound 0.08 µM),relative viability ([2]; first compound 0.253 µM),relative viability ([2]; first compound 0.8 µM),relative viability ([2]; first compound 2.53 µM),relative viability ([2]; first compound 8 µM),relative viability (TGX 221 + Pictilisib; first compound 0.253 µM),relative viability (TGX 221 + Pictilisib; first compound 0.8 µM),relative viability (TGX 221 + Pictilisib; first compound 2.53 µM),relative viability (TGX 221 + Pictilisib; first compound 8 µM),relative viability (TGX 221 + Pictilisib; first compound 0.08 µM)
HCC-15,0.641,0.728,0.756,0.704,0.719,0.39,0.369,0.409,0.427,0.358,0.696,0.885,0.855,0.886,0.692,0.706,0.784,0.71,0.782,0.806
HCC-44,1,1.04,1.05,1.08,1,1.13,1.15,1.13,0.937,0.927,0.845,0.833,0.754,0.901,0.625,0.571,0.615,0.555,0.541,0.648
HCC-78,0.801,0.69,0.753,0.618,0.623,0.916,1.27,0.972,0.728,0.628,0.374,0.423,0.443,0.343,0.3,0.179,–,0.231,0.231,0.242
HCC-366,0.331,0.303,0.407,0.344,0.357,–,0.385,0.363,0.439,0.314,0.245,0.779,0.614,0.599,0.285,0.152,0.102,0.147,0.0862,0.103
HCC-827,0.647,0.55,0.615,0.526,0.0337,0.538,0.368,0.538,0.535,0.536,1.02,0.959,0.965,1.03,0.926,0.979,1.09,0.896,0.732,1.02
HOP-62,0.408,0.435,0.536,0.707,0.585,0.38,0.431,0.41,0.378,0.337,0.901,1.14,0.983,1.04,0.783,0.742,0.544,0.682,0.689,0.694
IA-LM,0.866,0.857,0.846,0.858,0.799,–,–,–,–,–,0.826,0.914,0.714,0.882,0.439,–,0.423,0.288,0.412,0.276
NCI-H522,0.563,0.628,0.729,0.616,0.645,1,0.784,0.827,0.687,0.718,–,–,–,–,–,–,–,–,–,–
NCI-H1299,0.971,0.952,1.02,1.03,0.943,–,–,–,–,–,0.878,1.02,0.987,0.968,0.947,0.728,0.787,0.654,0.617,0.74
NCI-H1395,0.452,0.438,0.411,0.399,0.393,–,1.02,0.974,0.938,1.01,–,–,–,–,–,0.531,0.572,0.676,0.523,0.571
NCI-H1563,–,–,–,–,–,–,–,–,–,–,0.736,0.862,0.884,0.904,0.858,0.622,0.573,0.634,0.638,0.651
NCI-H1648,–,0.452,0.802,0.764,0.842,–,0.487,0.61,0.546,0.353,–,–,–,–,–,–,–,–,–,–
NCI-H1703,0.449,0.462,0.389,0.396,0.255,–,–,–,–,–,0.452,0.811,0.827,0.844,0.56,0.264,0.251,0.202,0.234,0.234
NCI-H1793,0.786,0.507,0.612,0.414,0.502,0.354,0.738,0.428,0.446,0.34,–,–,–,–,–,0.303,0.317,0.413,0.291,0.274
NCI-H2342,0.424,0.417,0.404,0.466,0.463,0.754,0.88,0.794,0.681,0.68,–,–,–,–,–,–,–,–,–,–
SW 900,–,0.787,0.701,0.578,0.562,–,1.06,0.947,0.762,0.646,–,–,–,–,–,–,–,–,–,–
